According to patent US12509446B2, “FYN and VEGFR2 kinase inhibitors” (ROTTAPHARM BIOTECH S.R.L., priority 2019, dated 2025):
Read-outs that look alike come from different tables or passages of the source.

What was measured:
Fyn = Fyn (Homo sapiens (Human), UniProt P06241); assay: Z′-LYTE in vitro Fyn kinase activity assay; format: biochemical; details: ATP 50 μM; read-out: FYN KINASE INHIBITION IC50
Procedure, shortened: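 Z′-LYTE FRET format with full-length active Fyn in 50 mM Hepes pH 7.5, 10 mM MgCl2, 1 mM EGTA, 0.01% Brij-35, 1% DMSO final; 60 minutes at 25° C. Percent phosphorylation from 0% and 100% phosphorylation controls; IC50 by non-linear curve fitting of percent inhibition.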

VEGFR2 = VEGFR2 (Homo sapiens (Human), UniProt P35968); assay: In vitro VEGFR2 kinase activity assay (Eurofins Cerep); format: biochemical; details: read-out: VEGFR2 KINASE INHIBITION IC50
Procedure, shortened: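 Contract biochemical kinase assay on human VEGFR2 with inhibitors at 10^−8 to 10^−5 M final (some re-tested from 10^−9 M). Activity expressed as percent of no-compound control; IC50 by non-linear regression of mean replicate inhibition curves.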

NF-kB = assay: Gene reporter (GR) assay, NF-kB activation after TNFα in JB6 Cl 41-5a (P+) cells; format: cell-based, murine; details: TNFα 2 ng/ml, non toxic concentrations, read-out: Gene reporter (GR) inhibition IC50
Procedure, shortened: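 TNFα (2 ng/ml, 4 h) stimulation followed 1 h compound pre-treatment in NF-kB-luciferase-transfected mouse JB6 (P+) epithelial cells. Reporter luminescence and cell viability were read together, each condition in quadruplicate.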

IL-1β = assay: Gene expression in rat articular chondrocytes under IL-1β stimulation, IL-1β; format: cell-based; details: for IL-1β gene expression, percentage of inhibitory effect at the highest non toxic concentration: 6 h
Procedure, shortened: (§1)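 Primary rat chondrocytes were synchronized in DMEM GlutaMAX I 0.4% 10 days after plating, then co-treated with test compounds (top concentration set by toxicity) and cytokine at 2 ng/ml. TaqMan RT-qPCR relative to 18S was read at 6 h for IL-1β and ADAMTS-5 and at 24 h for MMP3 and MMP13.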

IL-6 = assay: Gene expression in rat articular chondrocytes under IL-1β stimulation, IL-6; format: cell-based; details: 6 h
COX2 = assay: Gene expression in rat articular chondrocytes under IL-1β stimulation, COX2; format: cell-based; details: 24 h
ADAMTS-5 = assay: Gene expression in rat articular chondrocytes under IL-1β stimulation, ADAMTS-5; format: cell-based; details: for ADAMTS-5 gene expression, percentage of inhibitory effect at the highest non toxic concentration: 6 h; for IC50: Rattus norvegicus, Chondrocyte, 6 h incubation
Procedure, shortened: as §1

MMP3 = assay: Gene expression in rat articular chondrocytes under IL-1β stimulation, MMP3; format: cell-based; details: for MMP3 gene expression, percentage of inhibitory effect at the highest non toxic concentration: 24 h
Procedure, shortened: as §1

MMP13 = assay: Gene expression in rat articular chondrocytes under IL-1β stimulation, MMP13; format: cell-based; details: 24 h
Procedure, shortened: as §1

[1] = tested on: bovine nasal septum cartilage; assay: Inhibition of cartilage degradation (GAG release) induced by IL-1α in a bovine in vitro model; format: cell-based; details: for Inhibitory effect on the GAG release: at max concentration
Procedure, shortened: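 Cartilage punches (2 mm) from an 8-month-old male bovine nasal septum were cultured 48 h, then stimulated 48 h with IL-1α […] ± compound in DMEM + 0.1% BSA. Compound doses were set from 48 h rat chondrocyte toxicity. GAG in medium and papain-digested tissue was measured by DMB absorbance at 590 nm; degradation = medium GAG/total GAG × 100.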

[2] = tested on: rat primary articular chondrocytes
[3] = tested on: rat primary articular chondrocytes; assay: Toxicity analysis (MTT) in rat primary chondrocytes; details: for First toxic concentration at 24 h: rat primary chondrocytes

Sequence of VEGFR2 (P35968 20-1356): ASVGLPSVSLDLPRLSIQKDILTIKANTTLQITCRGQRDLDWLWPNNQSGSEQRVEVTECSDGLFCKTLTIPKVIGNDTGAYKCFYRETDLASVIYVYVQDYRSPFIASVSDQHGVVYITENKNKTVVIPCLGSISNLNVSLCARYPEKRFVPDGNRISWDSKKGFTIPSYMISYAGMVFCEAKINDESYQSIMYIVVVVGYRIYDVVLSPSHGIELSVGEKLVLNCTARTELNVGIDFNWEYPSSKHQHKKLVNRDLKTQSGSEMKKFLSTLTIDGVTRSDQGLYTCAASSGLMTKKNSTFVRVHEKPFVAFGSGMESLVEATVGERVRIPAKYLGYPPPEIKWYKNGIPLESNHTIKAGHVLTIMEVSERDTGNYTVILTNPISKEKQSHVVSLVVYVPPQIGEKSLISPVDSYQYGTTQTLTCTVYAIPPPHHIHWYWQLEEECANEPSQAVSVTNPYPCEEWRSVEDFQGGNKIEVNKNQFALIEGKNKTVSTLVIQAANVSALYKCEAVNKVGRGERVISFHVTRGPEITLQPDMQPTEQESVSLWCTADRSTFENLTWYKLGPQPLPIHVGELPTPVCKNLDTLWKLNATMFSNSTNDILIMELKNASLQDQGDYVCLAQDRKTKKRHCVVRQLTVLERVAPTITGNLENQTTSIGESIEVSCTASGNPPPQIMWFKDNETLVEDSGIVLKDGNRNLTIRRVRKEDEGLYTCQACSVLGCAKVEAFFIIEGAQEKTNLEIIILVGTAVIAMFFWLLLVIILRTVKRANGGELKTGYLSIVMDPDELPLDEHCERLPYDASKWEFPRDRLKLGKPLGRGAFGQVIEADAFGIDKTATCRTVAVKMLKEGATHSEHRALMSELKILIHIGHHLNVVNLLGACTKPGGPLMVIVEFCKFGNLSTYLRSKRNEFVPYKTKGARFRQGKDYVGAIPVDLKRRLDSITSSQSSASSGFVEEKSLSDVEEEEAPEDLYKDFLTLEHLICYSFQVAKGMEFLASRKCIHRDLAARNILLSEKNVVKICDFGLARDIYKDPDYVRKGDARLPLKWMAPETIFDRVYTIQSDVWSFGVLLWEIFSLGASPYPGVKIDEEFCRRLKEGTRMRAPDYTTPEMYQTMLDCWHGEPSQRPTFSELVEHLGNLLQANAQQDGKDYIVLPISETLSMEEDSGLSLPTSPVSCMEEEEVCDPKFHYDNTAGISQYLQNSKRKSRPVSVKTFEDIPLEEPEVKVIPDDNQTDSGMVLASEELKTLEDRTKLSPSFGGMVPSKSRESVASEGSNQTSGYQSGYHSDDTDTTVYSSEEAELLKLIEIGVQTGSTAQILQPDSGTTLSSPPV
Sequence of Fyn (P06241 whole entry): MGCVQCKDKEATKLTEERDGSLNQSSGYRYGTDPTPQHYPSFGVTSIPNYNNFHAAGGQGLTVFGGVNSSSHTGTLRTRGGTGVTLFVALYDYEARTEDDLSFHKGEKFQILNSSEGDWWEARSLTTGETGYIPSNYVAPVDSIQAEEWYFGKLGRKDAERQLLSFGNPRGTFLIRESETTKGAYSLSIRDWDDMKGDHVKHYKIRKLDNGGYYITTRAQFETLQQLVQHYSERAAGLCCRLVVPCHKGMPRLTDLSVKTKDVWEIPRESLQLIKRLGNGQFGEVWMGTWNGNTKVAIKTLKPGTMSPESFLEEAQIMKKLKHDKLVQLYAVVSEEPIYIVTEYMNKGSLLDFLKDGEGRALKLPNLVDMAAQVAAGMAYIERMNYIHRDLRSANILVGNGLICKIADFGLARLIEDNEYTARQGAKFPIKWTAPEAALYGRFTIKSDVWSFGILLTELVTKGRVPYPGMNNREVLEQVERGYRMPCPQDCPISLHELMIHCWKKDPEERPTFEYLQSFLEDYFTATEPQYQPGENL

IC50 (Fyn) [nM] | IC50 (VEGFR2) [nM] | SMILES | Inhibitory effect on the GAG release [1] | IC50 (NF-kB; Mus musculus, JB6 Cl 41-5a) [nM] | IL-6 gene expression, percentage of inhibitory effect at the highest non toxic concentration (IL-6; 10 μM) | COX2 gene expression, percentage of inhibitory effect at the highest non toxic concentration (COX2; 10 μM) | IC50 (ADAMTS-5) [nM] | MMP3 gene expression, percentage of inhibitory effect at the highest non toxic concentration (MMP3; 10 μM) | MMP13 gene expression, percentage of inhibitory effect at the highest non toxic concentration (MMP13; 10 μM) | First toxic concentration at 48 h in rat primary chondrocytes [3] [µM] | First toxic concentration at 24 h [3] [µM] | other results
24 | 35 | Cc1nc(C#N)cc(Nc2cc(CCc3cc(NC(=O)c4cccc(S(=O)(=O)N(C)C)c4)ccc3C)n[nH]2)n1 [Compound 37, N-(3-(2-(5-((6-cyano-2-methylpyrimidin-4-yl)amino)-1H-pyrazol-3-yl)ethyl)-4-methylphenyl)-3-(N,N-dimethylsulfamoyl)benzamide] |  | 2260 | 10 μM 97% | 10 μM 97% | 4000 | 10 μM 59% | 10 μM 95% | >10 | >10 | IC50 (IL-1β; Rattus norvegicus, Chondrocyte, 6 h incubation): 1600 nM; inhibition at 10 µM ([1]; Bos taurus, 10 μM, read-out: Bovine cartilage degradation induced by IL-1α, % inhibitory effect at max concentration): 99%
26 | < 10 | O=C(Nc1ccc(F)c(CCc2cc(Nc3cnccn3)[nH]n2)c1)c1cccc(C(F)(F)F)c1 [Compound 13, N-(4-fluoro-3-(2-(5-(pyrazin-2-ylamino)-1H-pyrazol-3-yl)ethyl)phenyl)-3-(trifluoromethyl) benzamide] | 95-100% | 308 |  |  |  |  |  | 3 | 3 | IL-1β gene expression, percentage of inhibitory effect at the highest non toxic concentration (IL-1β; 1 μM): 1 μM 96%; IL-6 gene expression, percentage of inhibitory effect at the highest non toxic concentration (IL-6; 1 μM): 1 μM 100%; COX2 gene expression, percentage of inhibitory effect at the highest non toxic concentration (COX2; 1 μM): 1 μM 96%; ADAMTS-5 gene expression, percentage of inhibitory effect at the highest non toxic concentration (ADAMTS-5; 1 μM): 1 μM 88%; IC50 (MMP3; Rattus norvegicus, Chondrocyte, 24 h incubation): 300 nM; MMP13 gene expression, percentage of inhibitory effect at the highest non toxic concentration (MMP13; 1 μM): 1 μM 94%; inhibition at 1 µM ([1]; Bos taurus, 1 μM, read-out: Bovine cartilage degradation induced by IL-1α, % inhibitory effect at max concentration): 97%
88 | < 10 | Cc1ccc(NC(=O)c2cccc(S(=O)(=O)C(C)C)c2)cc1CCc1cc(Nc2ncccc2C)[nH]n1 [Compound 35, 3-(isopropylsulfonyl)-N-(4-methyl-3-(2-(5-((3-methylpyridin-2-yl)amino)-1H-pyrazol-3-yl)ethyl)phenyl) benzamide] |  | 1310 | 10 μM 90% | 10 μM 90% | 3000 | 10 μM 44% | 10 μM 88% | >10 | >10 | IL-1β gene expression, percentage of inhibitory effect at the highest non toxic concentration (IL-1β; 10 μM): 10 μM 74%; IC50 ([1]; Bos taurus, head says nM, cells print μM, 48 h stimulation, read-out: Inhibitory effect on bovine cartilage degradation induced by IL-1α, IC50): 1500 nM

SMILES | IC50 (Fyn) [nM] | IC50 (VEGFR2) [nM] | Inhibitory effect on the GAG release [1] | IC50 (NF-kB; Mus musculus, JB6 Cl 41-5a) [nM] | IL-6 gene expression, percentage of inhibitory effect at the highest non toxic concentration (IL-6; 10 μM) | COX2 gene expression, percentage of inhibitory effect at the highest non toxic concentration (COX2; 10 μM) | IC50 (ADAMTS-5) [nM] | MMP3 gene expression, percentage of inhibitory effect at the highest non toxic concentration (MMP3; 10 μM) | MMP13 gene expression, percentage of inhibitory effect at the highest non toxic concentration (MMP13; 10 μM) | First toxic concentration at 48 h in rat primary chondrocytes [3] [µM] | First toxic concentration at 24 h [3] [µM] | other results
CC(=O)N1Cc2cnc(Nc3cc(CCc4cc(NC(=O)c5cccc(C(F)(F)F)c5)ccc4C)n[nH]3)cc2C1 [Compound 34, N-(3-(2-(5-((2-acetyl-2,3-dihydro-1H-pyrrolo[3,4-c]pyridin-6-yl)amino)-1H-pyrazol-3-yl)ethyl)-4-methylphenyl)-3-(trifluoromethyl) benzamide] | 6 | < 10 | 95-100% |  |  |  |  |  |  |  |  | IC50 (NF-kB): 958 nM; IL-1β gene expression, percentage of inhibitory effect at the highest non toxic concentration (IL-1β; 3 μM): 3 μM 99%; IL-6 gene expression, percentage of inhibitory effect at the highest non toxic concentration (IL-6; 3 μM): 3 μM 100%; COX2 gene expression, percentage of inhibitory effect at the highest non toxic concentration (COX2; 3 μM): 3 μM 76%; ADAMTS-5 gene expression, percentage of inhibitory effect at the highest non toxic concentration (ADAMTS-5; 3 μM): 3 μM 97%; MMP3 gene expression, percentage of inhibitory effect at the highest non toxic concentration (MMP3; 3 μM): 3 μM 58%; MMP13 gene expression, percentage of inhibitory effect at the highest non toxic concentration (MMP13; 3 μM): 3 μM 82%; Bovine cartilage degradation induced by IL-1α, % inhibitory effect at max concentration ([1]; 1 μM): 96%; First toxic concentration at 24 h [2]: 10 µM; First toxic concentration at 48 h in rat primary chondrocytes [2]: 3 µM
